Test results as given in US10301323B2, “Histone deacetylase inhibitors” (BIOMARIN PHARMACEUTICAL INC., priority 2011, dated 2019).
Read-outs that look alike come from different tables or passages of the source.

Columns and labels:
HCT116 cells = test: Cell proliferation assay; type: cell-based; settings: Homo sapiens, HCT-116, 72 h, read-out: Hct-116 (anti-proliferation IC50)
Protocol: HCT116 cells (5000 cells/well) in 80 μL McCoy's 5 A medium containing 10% v/v FBS, 1% v/v penicillin/streptomycin and 1% v/v L-glutamine were incubated in 96-well plates with compounds at various concentrations for 72 h at 37° C. in a 5% CO2 atmosphere. The compound dilutions were made in 100% DMSO followed by parallel dilutions in media. The final concentration of DMSO in each well was 0.05%. After 72 h, 20 μL of Cell titer 96 aqueous one solution (Promega Corporation, Madison, Wis.) were added to the cells and the plate was incubated at 37° C. for another 4 h. The absorbance at 490 nm was then recorded on a 96-well plate reader (Spectramax M2, Molecular Devices, Sunnyvale, Calif.). Data analysis was performed in Microsoft Excel (Microsoft Corp, Redmond, Wash.).

C57BL/6J male mice = test: Long term memory for object recognition; type: in vivo; settings: 3, 10, 30 mg/kg subcutaneous; object recognition memory task
Protocol: C57BL/6J male mice were handled 1-2 min for 5 days and were habituated to the experimental apparatus 5 min a day for 4 consecutive days in the absence of objects. […] 24-h later mice were tested for memory retention (5 min) using the object recognition memory task (ORM), in which a familiar object was replaced with a novel one. All training and testing trials were videotaped and analyzed by individuals blind to the treatment condition and the genotype of subjects. A mouse was scored as exploring an object when its head was oriented toward the object within a distance of 1 cm or when the nose was touching the object. The relative exploration time was recorded and expressed by a discrimination index [DI=(tnovel−tfamiliar)/(tnovel+tfamiliar)×100].

[1] = tested on: GM 15850 (lymphoblastoid cells line) cells; test: In-cell deacetylase inhibition assay (DAC assay); type: cell-based; settings: Homo sapiens, GM15850, GM 15850 cells, 4 h incubation
Protocol: Compound dilutions were made in 100% DMSO followed by parallel dilution in media with 2% DMSO. 10 μl of the compound dilutions were added to the cells to achieve the desired concentrations. The final concentration of DMSO in each well was 0.2%. The cells were incubated for 4 h at 37° C. with 5% CO2. After incubation, the cells were centrifuged down and the supernatant was removed. […] The reaction was stopped after 30 min incubation by addition of 50 μL developer (6 mg/mL trypsin in HDAC assay buffer). The reaction was allowed to develop for 30 min at room temperature and the fluorescence signal was detected using a fluorometer (Spectramax M2, Molecular Devices, Sunnyvale, Calif.) with excitation and emission wavelengths of 360 nm and 470 nm respectively. The data was fitted to a sigmoidal dose response equation with variable slope in GraphPad Prism 5.0 (GraphPad Software, La Jolla, Calif.) to determine IC50. Bottom and top of the curve were fixed to the average fluorescence response of control wells with no cells and cells but no compound respectively.

[2] = Compound stability in hepatocytes; settings: human hepatocytes, 5 μM compound
Protocol: To assess the stability and metabolism of RGFP compounds in hepatocytes. This assay was designed to evaluate the metabolism of RGFP compounds, following their incubation with human, monkey, dog and rat hepatocytes by monitoring either parent drug disappearance or metabolite appearance using HPLC.
Procedure: • Turn on the water-bath heater to 37° C. • Take out the KHB buffer and make sure it is at room temp before use • Prepare 2.5 mM concentration of RGFP compound in DMSO stock • Add 10 μL of above DMSO stock to 2490 μL KHB buffer; final concentration of RGFP compound will be 10 μM • Pre-warm 45 ml InVitro HT Medium to 37° C. in a sterile 50 ml conical tube • Add 1.0 mL Torpedo Antibiotic Mix per 45 mL InVitro HT medium • Transfer 13 mL of warm HT medium with Antibiotic Mix into a 15 mL conical tube. • Carefully remove the hepatocyte vials from liquid nitrogen (liquid phase). • Immediately immerse the vial into a 37° C. water bath. Shake gently until the ice melts entirely. […] Loosen the cell pellet by gently swirling the centrifuge tube • Transfer 100 μL of above solution to a different tube and add 900 μL of KHB buffer to count the cells • Determine the total cell count and the number of viable cells using the Trypan Blue exclusion method • Once you obtain the cell count, multiply the number by 10 (attributing to the dilution factor) • Now add required volume of KHB buffer to the tube containing hepatocytes such that the final count will be 2 million cells/mL • Dispense 50 μL of 2 million cells/ml to a 96 well plate and then add 50 μl of DMSO stock to respective wells (such that, the concentration of RGFP compounds is 5 μM and number of cells are 100000 in each well) • Place the plates on a shaker in a 37° C. incubator with 5% CO2 • Separate plates for each time point are advisable (Time points: 0 h, 1 h, 2 h, and 6 h) • After each time point, add 100 μL of quenching solution. • Quenching solution is an acetonitrile solution containing RGFP531 (10 μM) internal standard, 0.1% formic acid and phenylglyoxol (400 μM). The formic acid and phenylglyoxal is used for the identification and quantification of OPD as mentioned above. • Pipette up and down a few times to ensure a complete stop of reaction • Transfer all the solution into a 1.5 ml tube, vortex thoroughly, and centrifuge at 14000 RPM at 4° C. for 5 minutes to precipitate cell debris
Transfer the 150 μL of supernatant to vials for analysis using HPLC

[3] = Brain penetration studies; settings: Table 4; mice dosed s.c. at 5 mg/kg or 50 mg/kg, or i.v. at 5 mg/kg; Cmax(brain)/Cmax(plasma)
Protocol: Test compounds were prepared at either 0.5 mg/ml or 5 mg/ml in 30% hydroxypropyl-β-cyclodextrin, 100 mM sodium acetate pH 5.5, 5% DMSO. C57/BL6/J mice were dosed s.c. at 5 mg/kg or 50 mg/kg, or i.v. at 5 mg/kg. Animals were euthanized at pre-dose, 5, 15, 30 min, 1, 2 and 4 hours post-dose and plasma and brain obtained. Three animals per dose per time points were used. The levels of compound in the plasma and brain were determined by standard LC/MS/MS methods. Brain/plasma ratio (BPR) was calculated as the ratio of the Cmax(brain)/Cmax(plasma).

[4] = tested on: frataxin (FXN) mRNA in primary lymphocytes from Friedreich's ataxia patient donors; test: Effect of HDAC inhibitors on frataxin (FXN) mRNA expression; type: cell-based, human; settings: Table 4, concentration required for a 2-fold increase in FXN mRNA, 48 hours
Protocol: Blood is collected from Friedreich's ataxia patient donors into tubes containing the anti-coagulant EDTA. Primary lymphocytes are isolated using Lymphocyte Separation Medium (MP Biomedicals, Solon, Ohio) following the manufacturer's instructions and including a few modifications made by Repligen. After a final wash in Phosphate Buffered Saline (PBS), the cells are distributed into a 6-well cell culture plate in cell growth medium. The test HDAC inhibitor compound is added to cells in a dose escalating manner (usually concentrations range from 1 to 10 μM) and 0.1% DMSO is added to one well of cells as a no treatment control. Cells are incubated for 48 hours at 37° C. in a CO2 incubator; cell counts are taken using a Countess automated cell counter (Invitrogen, Carlsbad, Calif.). Equivalent numbers of cells for all treatment conditions are pelleted by centrifugation and resuspended in cell lysis buffer. Total RNA is isolated from approximately 1×10^6 primary lymphocytes using a RNeasy Mini Kit (Qiagen, Valencia, Calif.), following the manufacturer's instructions and including an optional on-column DNAse digestion step. […] The RNA yield and concentration is determined using a Nanodrop spectrophotometer (Thermo Fisher Scientific, Waltham, Mass.) and depending on the RNA concentration, one of two protocols is used to measure frataxin (FXN) transcript levels. […] In both methods each RNA sample is analyzed in triplicate (preferably) or duplicate (minimally) using a one-step qRT-PCR master mix that contains all the components necessary for cDNA synthesis and PCR amplification in a single, continuous reaction. […] The amount of FXN (or GAPDH) in the sample is determined as the relative quantity to the calibrator where the calibrator sample is assigned an arbitrary quantity of 1. The following equation is used: Relative quantity to the calibrator=2^−ΔCt where ΔCt=(Ct_gene)unknown−(Ct_gene)calibrator, gene is either FXN or GAPDH, calibrator is a DMSO control sample, and unknown is a HDACi treated sample. The relative quantity of FXN is normalized to cell number and RNA input. […]

SMILES | IC50 ([1]; Table 4, read-out: DAC IC50) | % left 6h Hum [2] | BPR [3] | further results
Cn1cnc(/C=C/C(=O)Nc2ccccc2N)c1 [A12] | – | – | – | IC50 (HCT116 cells): > 20 µM
Nc1ccccc1NC(=O)/C=C/c1cnn(CCOc2cc(F)cc(Cl)c2)c1 [B5, (E)-N-(2-aminophenyl)-3-(1-(2-(3-chloro-5-fluorophenoxy)ethyl)-1H-pyrazol-4-yl)acrylamide] | – | – | – | IC50 (HCT116 cells): 10 to 20 µM
Nc1cc(F)ccc1NC(=O)/C=C/c1cnn(C/C=C/c2ccccc2)c1 [D2, (E)-N-(2-amino-4-fluorophenyl)-3-(1-cinnamyl-1H-pyrazol-4-yl)acrylamide] | – | – | – | dose dependence of the effect on long-term memory (C57BL/6J male mice): no effect of dose
Nc1ccccc1NC(=O)/C=C/c1csc(C/C=C/c2ccccc2)n1 [E2, (E)-N-(2-aminophenyl)-3-(2-cinnamylthiazol-4-yl)acrylamide] | – | – | – | IC50 ([1]; read-out: 850 DAC (in-cell deacetylase inhibition IC50)): 10 to 20 µM; IC50 (HCT116 cells): > 20 µM
CN1C2CCC1CC(=Cc1ccc(C(=O)Nc3ccccc3N)cc1Cl)C2 [F8] | < 1 µM | – | – | –
Nc1ccccc1NC(=O)c1ccc(C=C2CN(CC3CC3)C2)c(Cl)c1 [F10] | 5 to 10 µM | – | A (A is greater than 1) | –
Nc1ccccc1NC(=O)c1ccc(C=C2COC2)c(Cl)c1 [F11] | < 1 µM | – | A (A is greater than 1) | –
Cc1ccc(C(=O)NCCCCCC(=O)Nc2ccc(F)cc2N)cc1 [RGFP 136, reference compound] | – | – | – | dose dependence of the effect on long-term memory (C57BL/6J male mice): Dose dependent effects

Continued, in another order:

IC50 ([1]; Table 4, read-out: DAC IC50) | % left 6h Hum [2] | BPR [3] | SMILES | further results
5 to 10 µM | – | – | Nc1ccccc1NC(=O)c1ccc(C=C2CCN(Cc3cccnc3)CC2)c(Cl)c1 [F7] | –
< 1 µM | IA (IA<10%) | – | Nc1ccccc1NC(=O)c1ccc(C=C2COC2)cc1F [F9] | –
< 1 µM | A (50%<A) | A (A is greater than 1) | Nc1ccccc1NC(=O)c1ccc(C=C2CN(CC3CC3)C2)cc1 [F12] | Fxn >2X (uM) [4]: A (A if less than 5 μM)
– | – | A (A is greater than 1) | Nc1ccccc1NC(=O)c1ccc(C=C2CCN(CC3CC3)CC2)cc1 [F13] | –
1 to 5 µM | – | A (A is greater than 1) | CC(C)(C)CN1CCC(=Cc2ccc(C(=O)Nc3ccccc3N)cc2)CC1 [F14] | Fxn >2X (uM) [4]: A (A if less than 5 μM)
1 to 5 µM | A (50%<A) | A (A is greater than 1) | CC(C)(O)CN1CCC(=Cc2ccc(C(=O)Nc3ccccc3N)cc2)CC1 [F15] | Fxn >2X (uM) [4]: A (A if less than 5 μM)
– | A (50%<A) | – | CC(C)(O)CN1CC(=Cc2ccc(C(=O)Nc3ccccc3N)cc2)C1 [F19] | –
– | A (50%<A) | – | Nc1cc(F)ccc1NC(=O)c1ccc(C=C2CN(CC3CC3)C2)cc1 [F20] | –
